Series [1] has as its system Mus musculus. The series can be described thus: Anticonvulsant activity in Mus musculus CF1 (mouse) assessed as protection against maximal electroshock-induced seizures at 100 to 300 mg/kg measured after 4 hr. In kind it is functional. For orientation: Protection in the maximal electroshock model is a classic sign of anticonvulsant action.
For series [2], the system named is Mus musculus. The series can be described thus: Anticonvulsant activity in Mus musculus CF1 (mouse) assessed as protection against maximal electroshock-induced seizures at 100 to 300 mg/kg measured after 0.5 hr. In kind it is functional.
A short description of series [3]: (§1) Neurotoxicity in Mus musculus CF1 (mouse) at 100 to 300 mg/kg by rotorod test. In kind it is toxicity, organism-based. The arrangement: dose 100-300 mg/kg. Conditions: CF1, mouse, in vivo. For orientation: The rotarod test checks motor coordination on a turning rod.
Series [4] relates to Mus musculus. The series can be described thus: Anticonvulsant activity in Mus musculus CF1 (mouse) assessed as protection against subcutaneous pentylenetetrazol-induced seizures at 100 to 300 mg/kg. In kind it is functional, organism-based.
The test system of series [5] is Mus musculus. The series is described as §1. Set-up: dose 100-300 mg/kg. Conditions: mouse, in vivo. In kind it is toxicity, organism-based.
In series [6] the test system is Mus musculus. The series can be described thus: Anticonvulsant activity in Mus musculus CF1 (mouse) assessed as protection against maximal electroshock-induced seizures at 300 mg/kg. In kind it is functional, organism-based. Set-up: dose 300 mg/kg.
For series [7], the target named is GABA-A receptor; agonist GABA site (Homo sapiens) (UniProt P14867+P47870+P28472+P48169+P34903+P18505+P47869+P31644+Q16445). In words: Displacement of [3H]TBOB from GABAA receptor (unknown origin) at 10 uM. In kind it is protein-complex assay. A general note: Displacement assays read how much labelled ligand stays bound in the presence of the test substance.
Series [8] relates to Mus musculus. The series can be described thus: Anticonvulsant activity in Mus musculus CF1 (mouse) assessed as protection against subcutaneous pentylenetetrazol-induced seizures. It is filed as functional.
Series [9] relates to Mus musculus. The series can be described thus: Neurotoxicity in Mus musculus CF1 (mouse) at 300 mg/kg by rotorod test. In kind it is toxicity, organism-based. Set-up: dose 300 mg/kg. Conditions: in vivo.
Series [10] relates to Mus musculus. In words: Anticonvulsant activity in Mus musculus CF1 (mouse) assessed as protection against subcutaneous pentylenetetrazol-induced seizures at 300 mg/kg. In kind it is functional, organism-based. The arrangement: dose 300 mg/kg.

The text below walks through data of ChEMBL document CHEMBL3046958, “Synthesis and Evaluation of Homologous Analogs of Anticonvulsant 5-Substituted 3,3-Diethyl-4,5-Dighdro-2(3H)-Furanones” (Med Chem Res, 2005).

The structures appear in SMILES notation. Activity calls are given as the source filed them. The calls are words filed in the database; no cut-off is given here.

As to `CCC1(CC)CC(CNC(=O)c2ccc(Br)cc2)OC1=O` (centres undefined), the median effective dose (ED50) (usually the dose at which the effect has come halfway, by size or by number of responders) in the series with Mus musculus [1] (CF1, 4 h, dose mg/kg 100-300) came out at 89.9 mg/kg; with Mus musculus [2] (CF1, 0.5 h, dose mg/kg 100-300), 89.9 mg/kg. Moreover, the TD50 (in general, the 50% point of the dose-response relation for the toxic effect studied) in series [3] was 285 mg/kg.

`CCC1(CC)CC(CCNC(=O)c2ccc(OC)cc2)OC1=O` (centres undefined): the outcome in the series on Mus musculus [2] and with Mus musculus [4] was inactive.

Turning to `CCC(=O)OCC1CC(CC)(CC)C(=O)O1` (centres undefined), the outcome in the series on Mus musculus [1], in the series with Mus musculus [2] and with Mus musculus [4] was inactive. Besides, in the series with Mus musculus [5], the Activity result was “Non-toxic”.

Take `CCC1(CC)CC(CCNC(=O)c2ccc(C)cc2)OC1=O` (centres undefined): the outcome in the series with Mus musculus [2] and with Mus musculus [4] was inactive.

As for `CCCCCCCC(=O)NCCC1CC(CC)(CC)C(=O)O1` (centres undefined), the result in the series with Mus musculus [2] and with Mus musculus [4] was inactive.

Turning to `CCC1(CC)CC(CCNC(=O)c2ccc(Br)cc2)OC1=O` (centres undefined), the result with Mus musculus [2] and with Mus musculus [4] was inactive.

With `CCC1(CC)CC(CCNC(=O)c2ccccc2)OC1=O` (centres undefined), in the series on Mus musculus [6], the outcome was Active. The result with Mus musculus [2] and in the series with Mus musculus [4] was inactive. The inhibition (usually the drop in the measured response relative to a control, in per cent) in series [7] was 0.29%.

Take `CCC1(CC)CC(COC(=O)c2ccc(Br)cc2)OC1=O` (centres undefined): the outcome in the series on Mus musculus [1], in the series on Mus musculus [2] and in the series on Mus musculus [4] was inactive. Also, the Activity result in the series on Mus musculus [5] is listed as “Non-toxic”.

As to `CCCCCCCC(=O)OCC1CC(CC)(CC)C(=O)O1` (centres undefined), the result in the series with Mus musculus [1], in the series on Mus musculus [2] and in the series on Mus musculus [4] was inactive. The Activity result with Mus musculus [5] is listed as “Non-toxic”.

Turning to `CCC1(CC)CC(COC(=O)c2ccc(OC)cc2)OC1=O` (centres undefined), the Activity was 300 mg/kg with Mus musculus [8] and “Non-toxic” in the series with Mus musculus [5]. Moreover, the result in the series on Mus musculus [1] and in the series with Mus musculus [2] was inactive.

On to `CCC(=O)NCCC1CC(CC)(CC)C(=O)O1` (centres undefined), for which the outcome with Mus musculus [2] and in the series with Mus musculus [4] was inactive. This molecule came in with an inhibition in series [7] of 3.62%.

On to `CCC1(CC)CC(CO)OC1=O` (centres undefined), for which the inhibition in series [7] stood at 9.1%.

As to `CCCCCCCC(=O)OCCC1CC(CC)(CC)C(=O)O1` (centres undefined), the result in the series with Mus musculus [2] and in the series on Mus musculus [4] was inactive.

As to `CCC(=O)OCCC1CC(CC)(CC)C(=O)O1` (centres undefined), the result in the series on Mus musculus [2] and in the series with Mus musculus [4] was inactive.

`CCC1(CC)CC(COC(=O)c2ccc(C)cc2)OC1=O` (centres undefined): the outcome in the series with Mus musculus [1], in the series on Mus musculus [2] and with Mus musculus [4] was inactive. In addition, the Activity entry in the series on Mus musculus [5] is “Non-toxic”.

Turning to `CCC1(CC)CC(CCOC(=O)c2ccc(Br)cc2)OC1=O` (centres undefined), in the series with Mus musculus [9], the Activity result was “Toxic”. The outcome in the series on Mus musculus [2] and with Mus musculus [4] was inactive.

With `CCC1(CC)CC(CCOC(=O)c2ccccc2)OC1=O` (centres undefined), the outcome in the series on Mus musculus [2] and with Mus musculus [4] was inactive. In series [7], the inhibition was determined as 3.86%.

As for `CCC1(CC)CC(CCOC(=O)c2ccc(C)cc2)OC1=O` (centres undefined), the result in the series on Mus musculus [2] and with Mus musculus [4] was inactive. Besides, the result in the series on Mus musculus [10] was Active.

In the case of `CCC1(CC)CC(CCOC(=O)c2ccc(OC)cc2)OC1=O` (centres undefined), the result in the series on Mus musculus [2] and with Mus musculus [4] was inactive.

Regarding `CCC1(CC)CC(COC(=O)c2ccccc2)OC1=O` (centres undefined), the outcome in the series with Mus musculus [1], in the series on Mus musculus [2] and in the series with Mus musculus [4] was inactive. Moreover, the Activity result in the series on Mus musculus [5] is listed as “Non-toxic”. In series [7], this molecule gave an inhibition of 12.5%.
